Literature values as cited in patent US20090297541A1, “MATURATION OF DENDRITIC CELLS” (priority 2006, published 2009).

Assays:
IFNGR1 chain = conditions: high affinity
immature DCs = conditions: MPLA at low doses (under 50 μg/ml)
monocyte-derived DCs = conditions: MPLA alone at concentrations up to 100 μg/ml

Row | Substance | Kd (IFNGR1 chain) | impact on DC maturation (monitored by IL-12 production) (immature DCs) | production of IL-12p70 or IL-10 (monocyte-derived DCs) | migration and functional maturation of DCs in vivo (murine DCs)
1 | IFN-gamma: cytokine, homodimer of two noncovalently bound polypeptide subunits; IFNγ receptor agonist | ~1 nM | – | – | –
2 | Monophosphoryl lipid A [MPLA] | – | no impact on DC maturation | failed to induce any significant production of IL-12p70 or IL-10 | induces the migration and functional maturation of murine DCs in vivo
